Assay results reported in paper PMC11579512, “Deoxybouvardin-glucoside induces apoptosis in non-small cell lung cancer cells by targeting EGFR/MET and AKT signaling pathway” (EXCLI Journal, 2024).
Like-named read-outs stand apart in the source and are kept apart here.

Tests used:
HCC827 cells = test system: HCC827 cells
Protocol: (§1) All culture media were supplemented with FBS (10 %) and P/S (1 %), and the cells were grown at 37 °C in 5 % CO2.
(§2) The cells were treated with MTT and incubated for 2 h. The supernatants were removed, and the remaining formazan crystals were dissolved in DMSO before absorbance measurement at 570 nm using a Multiscan GO spectrophotometer (Thermo Fisher Scientific, Vantaa, Finland).

HCC827GR cells = test system: HCC827GR cells
Protocol: as §1, §2

HaCaT cells = test system: HaCaT cells
Protocol: as §1, §2

## COc1ccc(C[C@H]2C(=O)N[C@@H](C)C(=O)N(C)[C@H]3Cc4ccc(cc4)Oc4cc(ccc4O[C@@H]4O[C@H](CO)[C@@H](O)[C@H](O)[C@H]4O)C[C@@H](C(=O)N[C@H](C)C(=O)N[C@@H](C)C(=O)N2C)N(C)C3=O)cc1 [DBG, deoxybouvardin glucoside]
HCC827 cells; 24 h, DBG 3 nM, replicate 1
  cell viability: 86.91%
HCC827 cells; 24 h, DBG 3 nM, replicate 2
  cell viability: 83.02%
HCC827 cells; 24 h, DBG 3 nM, replicate 3
  cell viability: 81.91%
HCC827 cells; 24 h, DBG 6 nM, replicate 1
  cell viability: 73.81%
HCC827 cells; 24 h, DBG 6 nM, replicate 2
  cell viability: 74.94%
HCC827 cells; 24 h, DBG 6 nM, replicate 3
  cell viability: 75.18%
HCC827 cells; 24 h, DBG 12 nM, replicate 1
  cell viability: 63.61%
HCC827 cells; 24 h, DBG 12 nM, replicate 2
  cell viability: 64.36%
HCC827 cells; 24 h, DBG 12 nM, replicate 3
  cell viability: 66.17%
HCC827 cells; 48 h
  IC50: 8.6 nM
HCC827 cells; 48 h, DBG 3 nM, replicate 1
  cell viability: 82.82%
HCC827 cells; 48 h, DBG 3 nM, replicate 2
  cell viability: 81.25%
HCC827 cells; 48 h, DBG 3 nM, replicate 3
  cell viability: 79.60%
HCC827 cells; 48 h, DBG 6 nM, replicate 1
  cell viability: 60.78%
HCC827 cells; 48 h, DBG 6 nM, replicate 2
  cell viability: 58.53%
HCC827 cells; 48 h, DBG 6 nM, replicate 3
  cell viability: 60.97%
HCC827 cells; 48 h, DBG 12 nM, replicate 1
  cell viability: 37.02%
HCC827 cells; 48 h, DBG 12 nM, replicate 2
  cell viability: 36.88%
HCC827 cells; 48 h, DBG 12 nM, replicate 3
  cell viability: 36.42%
HCC827 cells; DBG 3, 6, 12 nM
  viability, in words: suppressed the viability
HCC827GR cells; 24 h, DBG 3 nM, replicate 1
  cell viability: 88.10%
HCC827GR cells; 24 h, DBG 3 nM, replicate 2
  cell viability: 92.63%
HCC827GR cells; 24 h, DBG 3 nM, replicate 3
  cell viability: 91.95%
HCC827GR cells; 24 h, DBG 6 nM, replicate 1
  cell viability: 81.14%
HCC827GR cells; 24 h, DBG 6 nM, replicate 2
  cell viability: 86.21%
HCC827GR cells; 24 h, DBG 6 nM, replicate 3
  cell viability: 84.35%
HCC827GR cells; 24 h, DBG 12 nM, replicate 1
  cell viability: 77.73%
HCC827GR cells; 24 h, DBG 12 nM, replicate 2
  cell viability: 74.83%
HCC827GR cells; 24 h, DBG 12 nM, replicate 3
  cell viability: 73.57%
HCC827GR cells; 48 h
  IC50: 8.65 nM
HCC827GR cells; 48 h, DBG 3 nM, replicate 1
  cell viability: 81.02%
HCC827GR cells; 48 h, DBG 3 nM, replicate 2
  cell viability: 78.86%
HCC827GR cells; 48 h, DBG 3 nM, replicate 3
  cell viability: 79.86%
HCC827GR cells; 48 h, DBG 6 nM, replicate 1
  cell viability: 59.60%
HCC827GR cells; 48 h, DBG 6 nM, replicate 2
  cell viability: 58.31%
HCC827GR cells; 48 h, DBG 6 nM, replicate 3
  cell viability: 59.16%
HCC827GR cells; 48 h, DBG 12 nM, replicate 1
  cell viability: 38.12%
HCC827GR cells; 48 h, DBG 12 nM, replicate 2
  cell viability: 38.18%
HCC827GR cells; 48 h, DBG 12 nM, replicate 3
  cell viability: 39.51%
HCC827GR cells; DBG 3, 6, 12 nM
  viability, in words: suppressed the viability
HaCaT cells; 24 h, DBG 3 nM, replicate 1
  cell viability: 103.33%
HaCaT cells; 24 h, DBG 3 nM, replicate 2
  cell viability: 102.45%
HaCaT cells; 24 h, DBG 3 nM, replicate 3
  cell viability: 101.31%
HaCaT cells; 24 h, DBG 6 nM, replicate 1
  cell viability: 101.02%
HaCaT cells; 24 h, DBG 6 nM, replicate 2
  cell viability: 102.90%
HaCaT cells; 24 h, DBG 6 nM, replicate 3
  cell viability: 101.77%
HaCaT cells; 24 h, DBG 12 nM, replicate 1
  cell viability: 101.52%
HaCaT cells; 24 h, DBG 12 nM, replicate 2
  cell viability: 102.50%
HaCaT cells; 24 h, DBG 12 nM, replicate 3
  cell viability: 100.11%
HaCaT cells; 48 h, DBG 3 nM, replicate 1
  cell viability: 101.48%
HaCaT cells; 48 h, DBG 3 nM, replicate 2
  cell viability: 104.66%
HaCaT cells; 48 h, DBG 3 nM, replicate 3
  cell viability: 100.09%
HaCaT cells; 48 h, DBG 6 nM, replicate 1
  cell viability: 97.99%
HaCaT cells; 48 h, DBG 6 nM, replicate 2
  cell viability: 98.42%
HaCaT cells; 48 h, DBG 6 nM, replicate 3
  cell viability: 101.29%
HaCaT cells; 48 h, DBG 12 nM, replicate 1
  cell viability: 98.16%
HaCaT cells; 48 h, DBG 12 nM, replicate 2
  cell viability: 94.89%
HaCaT cells; 48 h, DBG 12 nM, replicate 3
  cell viability: 94.68%
HaCaT cells; DBG 3, 6, 12 nM
  viability, in words: did not affect
